Results published in patent EP4534086A1, “TREATMENT OF LEUKODYSTROPHY” (priority 2023, dated 2025).

Key:
[1] = tested on: Vimentin, Iba1 and IL-6 / MBP and MOG; assay: Gene-expression signature from RT-qPCR of cerebellum (inflammation/myelin ratio); assay type: in vivo, mice; conditions: donepezil vs vehicle
Method: Total RNAs were isolated from cerebellum tissues using the Nucleospin® total RNA isolation kit (Macherey-Nagel, Germany). The concentrations of isolated RNA from each sample were assessed using a NanoDrop 2000 Spectrophotometer (Thermo Scientific, USA). 10 µL of the isolated RNA were equalized to 20 microlitres (µL) using RNase-free water. Then, the cDNA was synthesized by reverse transcription using the High-Capacity cDNA manufacture kit (Applied Biosystems™, Thermo Fisher Scientific, USA). Equal volumes of the isolated RNA and cDNA mastermix were mixed, centrifuged, and loaded in the thermal cycler (T100™, BIO-RAD, USA). The cDNA was diluted 1:2 with RNase-free water and stored at -20 deg.°C prior to qPCR analysis. The manufactured cDNA was amplified using multi-target qPCR. cDNA and PCR mastermix, containing the target and endogenous primers, as well as the Taqman mastermix, were loaded on a 96-well PCR fast plate (Thermo Fisher Scientific, USA) in an ice block. […] Gene expression data were analyzed using the Livak and Schmittgen (2001) ΔΔCt method, to produce a relative quantity (RQ) value of target gene expression relative to GAPDH expression as per formula in equations 1-3: (1) ΔCt=Ct target- Ct endogenous; (2) ΔΔCt= ΔCt sample- ΔCt control sample; (3) RQ=2-ΔΔCt.
Data normality was assessed using the Shapiro-Wilk test. […]

Sig-1R = target: T1, Sig-1R (Rattus norvegicus, UniProt Q9R0C9); conditions: rats; cited from earlier work
T1 construct: host or cells: living rats
T1 sequence (Q9R0C9 whole entry): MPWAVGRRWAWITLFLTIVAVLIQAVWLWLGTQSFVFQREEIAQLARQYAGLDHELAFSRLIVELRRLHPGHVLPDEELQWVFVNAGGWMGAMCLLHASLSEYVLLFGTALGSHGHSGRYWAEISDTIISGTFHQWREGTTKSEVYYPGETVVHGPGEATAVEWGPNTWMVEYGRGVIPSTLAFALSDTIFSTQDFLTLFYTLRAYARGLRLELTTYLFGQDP

Structure (SMILES): COc1cc2c(cc1OC)C(=O)C(CC1CCN(Cc3ccccc3)CC1)C2 (racemic) [donepezil, (RS)-2-[(1-Benzyl-4-piperidyl)methyl]-5,6-dimethoxy-2,3-dihydroinden-1-one]
- gene-expression-signature (Vimentin, Iba1 and IL-6 divided by MBP and MOG) ([1]; twitcher mice, p=0.0016): significant decrease
- gene-expression-signature (Vimentin, Iba1 and IL-6 divided by MBP and MOG) ([1]; wild-type mice, p=0.2495): no significant difference
- dose corresponding to EC50 for receptor occupancy (Sig-1R): 1.07 mg/kg
